According to patent publication US20190031857A1, “BLACK-COLORED POLYAMIDE COMPOSITION AND PRODUCTION AND USE THEREOF” (BASF SE, priority 2016, published 2019):

Key:
[1] = Solubility of Solvent Black 28 in solvents; format: physicochemical
Procedure: The chromium complex dye b) used in accordance with the invention is available under the name Solvent Black 28 (CAS no.: 12237-23-9, C.I. Solvent Black 28). A commercially available product is Orasol Black 045 from BASF SE. […] Solubility at 20° C. in ethanol is about 10 g/L and in methyl ethyl ketone about 400 g/L.

[2] = Incorporation and coloring of the polymer by extrusion; details: attempted bulk coloring of polyethylene, above 160° C.
Procedure: 98 parts polyethylene (Grade M80064 from Sabic) were premixed in a tumbling mixer with 2 parts Solvent Black 28 (Orasol Black 045 from BASF) for 10 minutes and extruded in a twin-shaft extruder having a diameter of 18 mm and an L/D ratio of 44 at barrel temperature 210° C. A significant odor developed from the extruder nozzle; the polymer strands had expanded in the foam mold. The production of plaques by means of injection molding machines was not possible.
99.9 parts polyamide PA6 (Ultramid B3S from BASF) were premixed in a tumbling mixer with 0.1 part Solvent Violet 13 (Orasol Blue 640 from BASF) for 10 minutes and then extruded and pelletized using a twin-shaft extruder having a diameter of 18 mm and an L/D ratio of 44 at barrel temperature 260° C. For this purpose, the natural-colored polyamide pellets were dried beforehand in a drying oven at 100° C. for 4 hours, such that the moisture content was below 0.1%. For this purpose, the moisture content was determined by means of a thermal balance.

Q: Which Solubility in ethanol ([1]; 20° C., ethanol) does the source give for Solvent Black 28 here?
A: about 10 g/L

Q: What about the “Solubility in methyl ethyl ketone” value ([1]; 20° C., methyl ethyl ketone) of the same substance?
A: about 400 g/L

Q: And the Water solubility ([1]; water)?
A: almost water-insoluble

Q: And the “thermal stability in bulk coloring of polyethylene” value [2]?
A: entirely inadequate thermal stability
